Literature values as cited in patent US8664187B2, “Methods of treatment of endobronchial infections” (Novartis AG, priority 2004, dated 2014).
Read-outs that look alike come from different tables or passages of the source.

How the values were obtained:
P. aeruginosa isolates = conditions: CF patients, 1993
P. aeruginosa [1] = conditions: 300 mg inhaled twice daily, P<0.001 vs placebo
P. aeruginosa [2] = conditions: 600 mg tid aerosolized; 71 CF patients

NC[C@H]1O[C@H](O[C@H]2[C@H](O)[C@@H](O[C@H]3O[C@H](CO)[C@@H](O)[C@H](N)[C@H]3O)[C@H](N)C[C@@H]2N)[C@H](N)C[C@@H]1O [tobramycin]
concentrations effective in inhibiting the growth of many Gram-negative bacteria (Gram-negative bacteria): < 4 µg/mL | MICs of 90% of isolates (P. aeruginosa isolates): ≤ 16 µg/mL | MICs of 98% of all isolates (P. aeruginosa isolates): ≤ 128 µg/mL | average decrease in P. aeruginosa density (P. aeruginosa [1]; 28 days on/28 days off, Week 0 to Week 20): 0.8 log10 | average decrease in P. aeruginosa density (P. aeruginosa [1]; Week 0 to Week 4): 1.9 log10 | spirometry (P. aeruginosa [2]): improved spirometry | sputum density of P. aeruginosa (P. aeruginosa [2]): significant reduction in sputum density
